Test results as given in ChEMBL document CHEMBL3425448, “Synthesis of hydrolysis-resistant pyridoxal 5'-phosphate analogs and their biochemical and X-ray crystallographic characterization with the pyridoxal phosphatase chronophin” (Bioorg Med Chem, 2015).

Each compound was assayed against T1, Chronophin (Mus musculus, UniProt P60487) (assay: Inhibition of recombinant mouse brain PDXP expressed in Escherichia coli BL21 (DE3) cells assessed as pyridoxal 5' phosphate dephosphorylation preincubated for 4 mins followed by substrate addition measured after 5 mins).
T1 sequence (P60487 whole entry): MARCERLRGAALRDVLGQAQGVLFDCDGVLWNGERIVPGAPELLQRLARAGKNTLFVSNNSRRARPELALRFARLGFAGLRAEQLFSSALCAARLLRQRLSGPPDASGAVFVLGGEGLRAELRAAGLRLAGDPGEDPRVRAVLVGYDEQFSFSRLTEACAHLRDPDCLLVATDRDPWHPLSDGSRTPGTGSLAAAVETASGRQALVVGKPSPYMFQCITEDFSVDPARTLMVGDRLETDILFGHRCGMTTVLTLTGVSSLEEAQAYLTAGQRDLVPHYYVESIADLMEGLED

IC50 [µM]	Structure (SMILES)
79	Cc1ncc(CCP(=O)(O)O)c(C=O)c1O
246	Cc1ncc(/C=C/P(=O)(O)O)c(C=O)c1O
1300	Cc1ncc(CCP(=O)(O)O)c(CO)c1O
1300	Cc1ncc(/C=C/P(=O)(O)O)c(CO)c1O
